From patent publication US20240382572A1, “COMBINATIONS OF CHECKPOINT INHIBITORS AND THERAPEUTICS TO TREAT CANCER” (Cognate Bioservices, Inc., priority 2013, published 2024)

Key:
GL261 murine glioma [1] = assay: Survival of mice with intracranial GL261 glioma; format: in vivo, C57BL/6 mice; settings: mice with well-established intracranial GL261 glioma
GL261 murine glioma [2] = assay: Flow cytometry of tumor, lymph node and spleen harvests from GL261 glioma-bearing mice; format: in vivo, C57BL/6 mice
Description: Mice were intracranially implanted with GL261 murine glioma and then administered PBS (Ix) or lysate-pulsed DC vaccine subcutaneously on days 3 and 13 post-tumor implant. On day 16, 72 h after the second treatment, mice were euthanized and spleen, lymph, and brain hemispheres harvested for processing.
Spleen, lymph, and brain hemispheres harvested for processing on day 16 post-implant (72 h after second treatment).
Bone marrow-derived DC and vaccination. […] Briefly, bone marrow cells were cultured in a humidified atmosphere of 5% CO2 at 37° C. overnight in complete RPMI (Mediatech, Inc. Herndon, VA) (supplemented with 10% FBS, 1% (v/v) penicillin and streptomycin). The day following, nonadherent cells were collected and plated with murine interleukin-4 (IL-4, 400 IU/mL, R&D Systems, Minneapolis, MN) and murine granulocyte-macrophage colony stimulating factor (GM-CSF, 100 ng/mL, R&D Systems, Minneapolis, MN). On day 4, adherent cells were re-fed with fresh media with the same cytokines. On day 7, DCs were harvested and resuspended at 1×10^6 cells/ml in complete RPMI and pulsed with GL261 lysate (250 μg/mL). On day 8, DCs were collected and resuspended at 2×10^6 cells/mL in PBS Ix and immediately prepared for injection in 0.2 mL of cell suspension per mouse. Injections were given subcutaneously (s.c.) at 4 sites on the back.
Intracranial glioma implants. […]

PD-1 = target: T1, PD-1 (Homo sapiens, UniProt Q15116); settings: phase II, DLBCL, cited from earlier work
T1 construct: host or cells: Trial subjects (patients); PD-1 is endogenous
T1 sequence (Q15116 25-288): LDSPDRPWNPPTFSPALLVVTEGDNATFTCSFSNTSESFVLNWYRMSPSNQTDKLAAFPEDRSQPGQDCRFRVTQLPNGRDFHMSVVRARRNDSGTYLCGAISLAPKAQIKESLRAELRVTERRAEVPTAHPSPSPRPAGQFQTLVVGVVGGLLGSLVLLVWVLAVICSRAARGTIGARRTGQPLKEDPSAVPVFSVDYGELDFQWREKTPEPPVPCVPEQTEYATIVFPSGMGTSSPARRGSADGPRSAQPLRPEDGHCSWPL

| Molecule | survival (GL261 murine glioma [1]) | myeloid cells expressing PD-L1 (Thy1.2- Ly6C+ PD-L1+) in tumor (GL261 murine glioma [2]) | activated tumor-infiltrating lymphocytes (CD3+ CD8+ CD25+) (GL261 murine glioma [2]; day 16 post-implant) | subjects alive (PD-1; preliminary results) [%] | subjects progression-free at the end of the follow-up period (PD-1; preliminary results) [%] | activity of natural killer cells (PD-1) |
| --- | --- | --- | --- | --- | --- | --- |
| FC(F)(F)c1ccc(CNc2ccc(Cc3c[nH]c4ncc(Cl)cc34)cn2)cn1 [PLX3397] | entirely recovered survival benefit | absence of these Ly6C^+ PD-L1^+ cells | significant tumor-infiltrating population |  |  |  |
| CT-011: humanized IgG1 monoclonal antibody against PD-1 |  |  |  | 82 | 70 | augments the activity of natural killer cells |
